Experimental data taken from patent US4320134A, “Inhibiton of thromboxane synthetase with 1-substituted imidazole compounds” (Ono Pharmaceutical Co., Ltd., priority 1978, dated 1982).
Where a name gives a salt, the structure may show the parent alone.

What was measured:
[1] = Acute toxicity (LD50), intravenous, mice; conditions: mouse, in vivo, dd-stain male mice, 7 weeks old, Behrens-Karber method, read-out: median lethal dose (LD50)
Procedure: The median lethal dose (LD50) of N-(7-carboxyheptyl)imidazole and N-(6-methoxycarbonylhexyl)imidazole (known compound) were determined in dd-stain male mice (7 weeks old) by intravenous administration. The LD50 values were calculated according to the Behrens-Karber method.

[2] = biological target: T1, thromboxane synthetase (Oryctolagus cuniculus, UniProt G1TAZ9); assay: Inhibitory potency of imidazole compounds on thromboxane synthetase (conversion of prostaglandin H2 to thromboxane B2 by rabbit platelet microsomes); format: biochemical; conditions: 24° C., 1 minute
T1 construct: from tissue; host or cells: rabbit platelets (microsomes)
T1 sequence (G1TAZ9 1-530): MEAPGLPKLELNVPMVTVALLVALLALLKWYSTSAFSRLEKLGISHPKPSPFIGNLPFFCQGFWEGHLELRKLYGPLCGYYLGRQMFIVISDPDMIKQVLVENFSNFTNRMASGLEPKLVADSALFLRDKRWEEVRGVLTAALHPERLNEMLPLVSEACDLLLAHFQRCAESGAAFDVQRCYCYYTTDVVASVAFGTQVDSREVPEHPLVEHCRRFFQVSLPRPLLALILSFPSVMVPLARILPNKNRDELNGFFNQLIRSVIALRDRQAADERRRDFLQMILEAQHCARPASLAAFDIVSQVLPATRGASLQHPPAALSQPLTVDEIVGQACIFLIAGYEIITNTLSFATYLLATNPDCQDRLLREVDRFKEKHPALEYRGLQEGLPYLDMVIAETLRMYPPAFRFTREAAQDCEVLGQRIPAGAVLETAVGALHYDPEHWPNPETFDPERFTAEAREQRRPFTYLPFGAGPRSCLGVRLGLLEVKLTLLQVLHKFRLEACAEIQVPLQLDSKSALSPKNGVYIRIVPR
Procedure: (1-C^14)-Prostaglandin H2, obtained by the enzymatic biosynthesis with ram seminal vesicle microsomes and (1-C^14)-arachidonic acid, was incubated with rabbit platelet microsomes containing 0.025 μM and 0.5 μM of the test compound at 24° C. for 1 minute. The termination of the reaction and the extraction of a radioactive materials were carried out by the addition of a mixture of ethyl acetate/methanol/0.2 M citric acid (30:4:1 by volume). […] A spot of thromboxane B2 was counted by a packard Radiochromatogram Scanner.

[3] = tested on: thromboxane synthetase; conditions: in words; reported in the literature; cited from earlier work
[4] = tested on: thromboxane synthetase; assay: Inhibitory effect on thromboxane synthetase, general statements; format: biochemical; conditions: in words

| Compound | inhibition at 0.025 µM [2] [%] | inhibition at 0.5 µM [2] [%] | further results |
| --- | --- | --- | --- |
| O=C(O)CCCCCCCn1ccnc1 [N-(7-carboxyheptyl)imidazole, 1-(7-Carboxyheptyl)imidazole] | – | – | LD50 [1]: 560 mg/kg |
| O=C(O)CCCCCCn1ccnc1 [N-(6-carboxyhexyl)imidazole hydrochloride] | 10.1 | 76.1 | – |
| Cn1ccnc1 [1-methylimidazole] | – | – | inhibitory action for thromboxane synthetase [3]: weak |
| COC(=O)CCCCCCn1ccnc1 [N-(6-methoxycarbonylhexyl)imidazole, reference compound] | 5.5 | 25.7 | LD50 [1]: 140 mg/kg; inhibitory effect on thromboxane synthetase compared with imidazole or 1-methylimidazole [4]: stronger inhibitory effect; inhibitory effect on thromboxane synthetase, suitability as medication [4]: not completely satisfactory as a practical medication |
| c1c[nH]cn1 [imidazole] | – | – | inhibitory action for thromboxane synthetase [3]: weak |
| O=C(O)CCCCCCCn1ccnc1 [1-(7-Carboxyheptyl)imidazole Hydrochloride] | 31.2 | 89 | – |

Now from value to compound, other results behind:

| inhibition at 0.025 µM [2] [%] | inhibition at 0.5 µM [2] [%] | Compound | further results |
| --- | --- | --- | --- |
| 42.2 | 90.8 | O=C(O)CCCCCCCCn1ccnc1 [N-(8-carboxyoctyl)imidazole hydrochloride] | – |
| 20.2 | 72.5 | O=C(O)CCCCCCCCCn1ccnc1 [N-(9-carboxynonyl)imidazole hydrochloride] | – |
| 9.2 | 40.4 | O=C(O)CCCCCCCCCCn1ccnc1 [N-(10-carboxydecyl)imidazole hydrochloride] | – |
| 13.8 | 46.8 | O=C(O)CCCCCCCCCCCn1ccnc1 [N-(11-carboxyundecyl)imidazole hydrochloride] | – |
